A short description of data set [1]: Stability of chelates to autoclaving (CM-Sephadex assay). In kind it is physicochemical. To be noted: for % of total / dpm: autoclaved 30 minutes at 121° C. Here is the method: A sample comprising 5 ml of Sm-DTPA, La-DTPA, and Eu-DTPA prepared in Examples 9, 10, and 11 were placed in 10 ml glass bottles, each capped with a grey butyl rubber cap, and the caps were crimped. Samples were autoclaved for 30 minutes at 121° C.
Five ml of each of Sm-DOTA, La-DOTA, and Eu-DOTA prepared in Examples 13, 14, and 15 were placed in 10 ml glass bottles capped with a grey butyl rubber cap and crimped. Samples were autoclaved for 30 minutes at 121° C. Samples were allowed to cool to room temperature and were assayed as described in Examples 25.

Data set [2] is described as follows: Assay of chelate on carboxymethyl (CM) Sephadex column (chelate formation, charge). It is filed as physicochemical. To be noted: for time within which the chelate forms: room temperature, Tris pH 7.5. Here is the method: Preparation of carboxymethyl sephadex column. To two 10 ml plastic pipets cut off at the 3 ml mark and plugged with glass wool at the bottom add enough slurry to form a 2 ml volume of the CM sephadex. Wash the packed resin with 6 ml of 1 M Tris buffer pH 7.5, and 6 ml of 0.01M Tris buffer pH 7.5. […] Collect the eluants of fractions as follows. Fraction 1.3 ml of 0.01 M Tris buffer pH 7.5 and allow to drain into column. Fraction 2.1 ml of sample (gadolinium-DTPA or gadolinium chloride) and allow to drain into column. Apply 3 ml of 0.01 M Tris buffer pH 7.5 and allow to drain into column. Fraction 3.3 ml of 0.01M Tris buffer pH 7.5 and allow to drain into column. Dry all fractions at 70° C. for 76 hours, dissolve in 1 ml of 1 mM HCl and assay by atomic absorption.
(§1) Preparation of carboxymethyl Sephadex column. To two 10 ml plastic pipets which had been cut off at the 3 ml mark and plugged with glass wool at the bottom, enough slurry was added to form a 2 ml volume of the CM Sephadex. The packed resin was wash with 6 ml of 1 M Tris buffer pH 7.5, and 6 ml of 0.01M Tris buffer pH 7.5. […] Fractions were applied as follows. Fraction 1. Three ml of 0.01 M Tris buffer pH 7.5 and allow to drain into column. Fraction 2. One ml of sample (samarium-DTPA or samarium chloride) and allow to drain into column. Apply 3 ml of 0.01 M Tris buffer pH 7.5 and allow to drain into column. Fraction 3. Three ml of 0.01M Tris buffer pH 7.5 and allow to drain into column. Collect the eluant of fractions 1 through 3. Fraction 4. Column and contents.
as §1, with “were” for “had been”, “washed” for “wash”, “(lanthanum-DTPA” for “(samarium-DTPA”, “lanthanum” for “samarium”
as §1, with “were” for “had been”, “washed” for “wash”, “(Europium-DTPA” for “(samarium-DTPA”, “Europium” for “samarium”
Preparation of carboxymethyl sephadex column. To a 10 ml plastic pipet cut off at the 3 ml mark and plugged with glass wool at the bottom, add enough slurry to form a 2 ml volume of the CM sephadex. Wash the packed resin with 6 ml of 1 M Tris buffer pH 7.5, and 6 ml of 0.01M Tris buffer pH 7.5. […] Apply fractions as follows. Fraction 1. One ml of sample A and allow to drain into column.

A short description of data set [3]: Kinetics of blood depletion and urine accumulation of chelates in the rat. It is filed as in vivo. As to conditions: average of three rats. On the procedure:
One half ml of Sm-DTPA (0.01 mg/kg), dissolved in saline (pH 7), is injected into the tail vein of three rats. Samples of blood are obtained at 10, 30 and 60 minutes following injection and analyzed for Sm-DTPA by neutron activation. The percent of starting amount of the Sm-DTPA at each time interval is presented in Table 18 (last column on right). Similarly, the accumulation of Sm-DTPA in the rat urine at two times is shown in the last column of Table 18.
One half ml of Technetium-99m-DTPA (1 millicurie), Gd-DTPA (0.05 mg/kg), and Sm-DTPA (0.01 mg/kg) are each dissolved in saline (pH 7), and are injected simultaneously into the tail vein of three rats. Samples of blood are obtained at 10, 30 and 60 minutes following injection and analyzed for ^99mTc-DTPA (gamma counting), Gd-DTPA (T1 relaxation) and Sm-DTPA (neutron activation).
One half ml of Sm-DTPA, La-DTPA and Eu-DTPA (each 0.01 mg/kg), dissolved in saline (pH 7) are injected simultaneously into the tail vein of three rats. Samples of blood are obtained at 10, 30 and 60 minutes following injection and analyzed for each element by neutron activation.
Samples of Sm-DTPA, La-DTPA and Eu-DTPA (0.5 ml; 0.01 mg/kg), each dissolved in saline (pH 7), are injected sequentially at 0, 20, and 40 minutes into the tail vein of three rats. Samples of blood are obtained at 10, 30 and 60 min following each injection and analyzed for each element by neutron activation.

Setting [4] is: Fraction 1: sample diluted 1:10 then 2-3 ml 0.01M Tris pH 7.5 (eluate).
The mark [5] stands for this setting: Fraction 2: 3 ml 0.01M Tris pH 7.5.
Where [6] appears, read: Fraction 3: column and contents (retained).
Setting [7] is: Fraction 1: 3 ml 0.01M Tris pH 7.5 before sample.
Setting [8] is: Fraction 2: 1 ml sample then 3 ml 0.01M Tris pH 7.5 (eluate).
Setting [9] is: Fraction 3: further 3 ml 0.01M Tris pH 7.5.
The mark [10] stands for this setting: Fraction 4: column and contents (retained).
Setting [11] is: blood 10 min, Sm-DTPA, La-DTPA and Eu-DTPA (each 0.01 mg/kg i.v.) simultaneously administered (Example 31).
The mark [12] stands for this setting: blood 10 min after each injection, Sm-DTPA, La-DTPA, Eu-DTPA (0.01 mg/kg i.v.) sequentially administered at 0, 20, 40 minutes (Example 32).
Setting [13] is: blood 30 min, Sm-DTPA, La-DTPA and Eu-DTPA simultaneously administered (Example 31).
Where [14] appears, read: blood 30 min after each injection, sequentially administered (Example 32).
Where [15] appears, read: blood 60 min, Sm-DTPA, La-DTPA and Eu-DTPA simultaneously administered (Example 31).
[16] abbreviates: blood 60 min after each injection, sequentially administered (Example 32).
The mark [17] stands for this setting: urine 30 min, Sm-DTPA, La-DTPA and Eu-DTPA simultaneously administered (Example 31).
[18] abbreviates: urine 30 min, sequentially administered (Example 32).
Setting [19] is: urine 180 min, Sm-DTPA, La-DTPA and Eu-DTPA simultaneously administered (Example 31).
[20] abbreviates: urine 180 min, sequentially administered (Example 32).

With `O=C([O-])CN(CCN(CC(=O)[O-])CC(=O)[O-])CCN(CC(=O)[O-])CC(=O)[O-].[Eu+3]` [Eu-DTPA], the “% eluted from CM-Sephadex column following autoclaving” value in data set [1] came to 100%. Moreover, the “% of total” value is on record as 97 % of total in data set [1] (setting [4]); 3 % of total in data set [1] (setting [5]); 0 % of total in data set [1] (setting [6]); 0 % of total in data set [2] (setting [7]); 100 % of total in data set [2] (setting [8]); 0 % of total in data set [2] (setting [9]). In addition, the “% of total” value in data set [2] (setting [10]) was 0 % of total. Also, the dpm turned out to be 380954 dpm in data set [1] (setting [4]); 13226 dpm in data set [1] (setting [5]); 0 dpm in data set [1] (setting [6]); 0 dpm in data set [2] (setting [7]); 22115 dpm in data set [2] (setting [8]); 0 dpm in data set [2] (setting [9]). In addition, in data set [2] (setting [10]), the dpm is reported as 0 dpm. In addition, the “% eluted from the CM-Sephadex column” value in data set [2] was determined as 100%. For the same compound, the “time within which the chelate forms” value in data set [2] was no more than 5 min. Also, the “Percent of initial injection, blood” value in data set [3] (setting [11]) was 87% of initial injection; in data set [3] (setting [12]) it was 87% of initial injection; in data set [3] (setting [13]) it was 62% of initial injection; in data set [3] (setting [14]) it was 64% of initial injection; in data set [3] (setting [15]), 33% of initial injection; in data set [3] (setting [16]), 34% of initial injection. In addition, the “Percent of initial injection, urine” value in data set [3] (setting [17]) is 21% of initial injection; in data set [3] (setting [18]), 26% of initial injection; in data set [3] (setting [19]), 96% of initial injection; in data set [3] (setting [20]), 97% of initial injection.

On to `O=C([O-])CN(CCN(CC(=O)[O-])CC(=O)O)CCN(CC(=O)[O-])CC(=O)O.[Gd+3]` [Gd-DTPA, Gd-diethylenetriaminepentaacetic acid], for which, in data set [2], the “% eluted from the CM-Sephadex column” value was 100%. Moreover, the entries for the “% of total” value in data set [2] (setting [7]), in data set [2] (setting [8]) and in data set [2] (setting [9]) were 0 % of total, 100 % of total and 0 % of total, respectively. Besides, the “time within which the chelate forms” value in data set [2] is no more than 5 min. In addition, the “Percent of initial injection, blood” value in data set [3] (blood 10 min after i.v. injection, ^99mTc-DTPA, Gd-DTPA and Sm-DTPA simultaneously administered (Example 30)) is 83% of initial injection; in data set [3] (blood 30 min, ^99mTc-DTPA, Gd-DTPA and Sm-DTPA simultaneously administered (Example 30)), 65% of initial injection; in data set [3] (blood 60 min, ^99mTc-DTPA, Gd-DTPA and Sm-DTPA simultaneously administered (Example 30)), 35% of initial injection. Besides, the “Percent of initial injection, urine” value in data set [3] (urine 30 min, ^99mTc-DTPA, Gd-DTPA and Sm-DTPA simultaneously administered (Example 30)) was 22% of initial injection; in data set [3] (urine 180 min, ^99mTc-DTPA, Gd-DTPA and Sm-DTPA simultaneously administered (Example 30)) it was 94% of initial injection.

`O=C([O-])CN(CCN(CC(=O)[O-])CC(=O)[O-])CCN(CC(=O)[O-])CC(=O)[O-].[La+3]` [La-DTPA]: the “% eluted from CM-Sephadex column following autoclaving” value in data set [1] was found to be 100%. Further, the “% of total” value in data set [1] (setting [4]) was 97 % of total; in data set [1] (setting [5]), 3 % of total; in data set [1] (setting [6]) it was 0 % of total; in data set [2] (setting [7]), 0 % of total; in data set [2] (setting [8]), 100 % of total; in data set [2] (setting [9]) it was 0 % of total. In data set [2] (setting [10]), the “% of total” value is listed as 0 % of total. Moreover, the dpm worked out at 411400 dpm in data set [1] (setting [4]); 12180 dpm in data set [1] (setting [5]); 0 dpm in data set [1] (setting [6]); 0 dpm in data set [2] (setting [7]); 489692 dpm in data set [2] (setting [8]); 0 dpm in data set [2] (setting [9]). The compound also displayed a dpm in data set [2] (setting [10]) of 0 dpm. In addition, the “% eluted from the CM-Sephadex column” value in data set [2] was found to be 100%. The “time within which the chelate forms” value in data set [2] was no more than 5 min. Further, the “Percent of initial injection, blood” value in data set [3] (setting [11]) is given as 85% of initial injection; in data set [3] (setting [12]) it was 82% of initial injection; in data set [3] (setting [13]), 63% of initial injection; in data set [3] (setting [14]), 62% of initial injection; in data set [3] (setting [15]), 33% of initial injection; in data set [3] (setting [16]), 32% of initial injection. Further, the “Percent of initial injection, urine” value is on record as 23% of initial injection in data set [3] (setting [17]), 25% of initial injection in data set [3] (setting [18]), 92% of initial injection in data set [3] (setting [19]) and 95% of initial injection in data set [3] (setting [20]).

The values are drawn from patent publication US7048907B2, “Synthesis, compositions and methods for the measurement of the concentration of stable-isotope labeled compounds in life forms and life form excretory products” (BioPhysics Assay Laboratory, Inc., priority 2001, dated 2006).
